Columns and labels:
[1] = tested on: ribosomal protein S6 (downstream effector of the mTOR pathway); experiment: Western blot of S6 protein phosphorylation in hippocampus of pentylenetetrazol-treated rats; type: in vivo, rat; settings: for ratio of phosphorylated S6 related to total S6 protein: hippocampus of adult male Sprague-Dawley rats, pretreatment i.p. (stiripentol 300 mg/kg or wortmannin 2.4 mg/kg) 30 min before pentylenetetrazol 80 mg/kg s.c., sacrifice 30 min after PTZ, Veh-PTZ control 0.79
Protocol: (§1) The mTOR pathway has been studied at two levels (i) an upstream level of regulation with the P13K-Akt, a modulator of the mTOR pathway and (ii) a downstream level with the ribosomal protein S6, the substrate of the S6 kinase, a direct downstream effector of the mTOR pathway. Adult male Sprague-Dawley rats (Janvier, 220-250 g, n=24, 7 weeks old) were used in this study. They were housed 2 per cage (Techniplast ref. 1291), and maintained in a 12 h light/dark cycle (light ON at 7 AM). Food and water were provided ad libitum. The experiments were conducted in accordance with the European Recommendations (directive 2010/63/EU) for the use and care of laboratory animals. The experimental protocol has been approved by the ethics committee. Pentylenetetrazol (batch MKB[…], SIGMA), 80 mg/kg in 0.9% NaCl was administered subcutaneously in an injection volume of 5 mL/kg. Wortmannin (Sigma), 2.4 mg/kg in DMSO 10% v/v in 0.9% NaCl or Stiripentol (Biocodex), 300 mg/kg in tween80 5% v/v, were injected intraperitoneally (10 mL/kg) 30 min before pentylenetetrazol administration. […] The protein concentration of each sample was determined by a BCA protein assay. […] Signals were detected by enzyme chemiluminescence (Vilber Lourmat Fusion FX5 system) and quantitatively analyzed with the Bio-1 D software (Vilber Lourmat, France). […] Each membrane was also stripped (RestoreTM western blot stripping buffer, Thermoscientific) and reprobed to detect beta-actin protein levels, a control for the total quantity of protein deposited. […] The difference between groups was assessed by a two-way ANOVA followed by a Holm-Sidak multiple comparison (factor pretreatment=tween or STP, factor treatment=NaCl or PTZ). The effect of wortmaninn was assessed by a t-test comparison between tween-pentylenetetrazol (n=5) versus wortmannin-pentylenetetrazol groups (n=3).

[2] = tested on: Akt (P13K-Akt, upstream modulator of the mTOR pathway); experiment: Western blot of Akt phosphorylation in hippocampus of pentylenetetrazol-treated rats; type: in vivo, rat; settings: for ratio of phosphorylated Akt related to total Akt: hippocampus of adult male Sprague-Dawley rats, pretreatment i.p. (stiripentol 300 mg/kg or wortmannin 2.4 mg/kg) 30 min before pentylenetetrazol 80 mg/kg s.c., sacrifice 30 min after PTZ, tween-PTZ control 1.81
Protocol: as §1

[3] = hippocampus, rats pretreated i.p. 30 min before pentylenetetrazol 80 mg/kg s.c.

COC[C@H]1OC(=O)c2coc3c2[C@@]1(C)C1=C(C3=O)[C@@H]2CCC(=O)[C@@]2(C)C[C@H]1OC(C)=O [wortmannin]
ratio of phosphorylated S6 related to total S6 protein [1]: 0.30
ratio of phosphorylated Akt related to total Akt [2]: 0.40

CC(C)(C)C(O)/C=C/c1ccc2c(c1)OCO2 (racemic) [stiripentol, 1-penten-3-ol, 1-(1,3-benzodioxol)-4,4-dimethyl]
ratio of phosphorylated S6 related to total S6 protein [1]: 0.36
band of phosphorylated S6 protein in western blot (FIG. 3) [1, 3]: No band was visible
ratio of phosphorylated Akt related to total Akt [2]: 2.46
band of phosphorylated Akt in western blot (FIG. 1) [2, 3]: strong band
